Marks after values point to notes of the source that are not given here.
Key:
CNTF = assay: CNTF-like bioactivity of sciatic nerve homogenates (24 hour survival of E8CG neurons); format: in vivo, rat
Protocol: (§1) These studies were conducted with the approval of the San Diego Veterans Administration Animal Studies Subcommittee. Female Sprague-Dawley rats (240-300 g; Charles River, San Diego, Calif.) were housed in cages with wire bottoms to reduce contact with urine and feces. Groups were established and fed either a 40% D-galactose diet or a control diet specially formulated by Purina that contained 40% solka floc, a nonnutritive fiber, to balance nutritional intake. All diets contained 100% of the micronutrients required by rats and, with water, were available ad libitum. Each of these diet groups contained animals that were treated with the ARI, Ponalrestat (50 mg/kg), daily by oral gavage. After two months, rats were anesthetized by intraperitoneal injection (1 ml/kg ip) of pentobarbital sodium (12.5 mg/ml) and diazepam (1.25 mg/ml) in bacteriostatic saline. Under deep anesthesia, motor nerve conduction velocity (MNCV) was measured in the left hindlimb prior to removal of the sciatic nerve. The proximal portion was processed for subsequent light microscopic examination and the distal portion used for gas chromatographic analysis of nerve polyols. The contralateral sciatic nerve was removed and used for assay of CNTF-like neurotrophic activity and either Northern blot or ELISA analysis of CNTF mRNA or protein, respectively.
Bioassays were performed on extracts of sciatic nerve as described previously by Calcutt et al. (1992) Brain Res. 575:320-324. Briefly, 4 mm segments were homogenized in cold Hank's balanced salt solution, centrifuged and the soluble supernatant aspirated. An aliquot of the supernatant was used to determine the amount of protein using the Bradford assay. The remaining supernatant was used to assay CNTF-like activity by the ability to support the 24 hour survival of day eight embryonic chick ciliary ganglia (E8CG) neurons. E8CG neurons were obtained from chick ciliary ganglia after trypsin treatment and trituration in Dulbecco's Modified Eagle's Medium plus 10% fetal calf serum (DMEM+10% FCS). After seeding onto a tissue culture dish for 2.5 hours to allow attachment of nonneuronal cells, unattached neurons were collected, counted and added to 96-well microtiter plates (500 neurons/well) precoated with polyornithine and laminin. Nerve homogenates were serially diluted in DMEM+10% FCS, added to the microtiter plates and incubated for 24 hours. A dose-response curve using rat recombinant CNTF was used as a standard and to establish the maximum CNTF effect for each assay. […] Cells were then fixed and the number of surviving, intact, blue-staining cells counted using phase contrast microscopy. […]

[1] = Sciatic nerve water content; format: in vivo, rat; conditions: for Water: sciatic nerve, Ponalrestat 50 mg/kg daily oral, two months
Protocol: as §1, with “The proximal portion was processed for subsequent light microscopic examination and the distal portion used for gas chromatographic analysis of nerve polyols. The contralateral sciatic nerve was removed and used for assay of CNTF-like neurotrophic activity and either Northern blot or ELISA analysis of CNTF mRNA or protein, respectively.” left out
For determination of water content and dry weight, distal segments of sciatic nerve were lightly blotted, weighed prior to freeze-drying and reweighed. Nerve polyols were measured by gas chromatography with α-methylmannoside as an internal standard (Mizisin et al., (1993) J. Neurol. Sci. 116:67-72) using a Hewlett Packard 5890 gas chromatograph (Hewlett Packard, Avondale, Pa.) fitted with a flame ionization detector and a 25 m×0.2 mm capillary column (Hewlett Packard Ultra 1). Nerve water and polyol contents are expressed as mg and nmol per mg nerve dry weight, respectively.
The effect of two months of galactose feeding and ARI treatment on body weight, nerve water and polyol content, and MNCV is shown in Table 1. Data are presented as mean ±SD (N=8 to 10) and were analyzed with a one way ANOVA after which multiple comparisons were made with the Student-Newman-Keuls test. […] ARI-treated animals received a daily oral gavage (50 mg/kg) of Ponalrestat (ND—Not detected).

## O=C(O)Cc1nn(Cc2ccc(Br)cc2F)c(=O)c2ccccc12 [Ponalrestat, 3-(4-bromo-2-fluorobenzyl)-4-oxo-3H-phthalazin-1-ylacetic acid]
CNTF; normal rats, survival of embryonic chick ciliary ganglia neurons
  Increase of CNTF associated activity compared to normal rats that did not receive any ARI: two and one-half fold increase
CNTF; sciatic nerve, control diet rats, 50 mg/kg daily oral, two months
  Increase of CNTF-like bioactivity (TU/ml) compared to untreated control animals: ~250%
CNTF; sciatic nerve, galactose-fed rats with ARI
  CNTF-like bioactivity relative to control levels: not restored to control levels
CNTF; sciatic nerve, galactose-fed rats, 50 mg/kg daily oral, two months, P<0.05
  Increase of CNTF-like bioactivity (TU/ml) compared to the untreated galactose group: 60%
[1]; galactose-fed rats
  Nerve water content (in words): restored
[1]; 40% D-galactose diet rats
  Water: 1.8 ± 0.3^a mg/mg dry wt
[1]; control diet rats
  Water: 1.8 ± 0.1^a mg/mg dry wt
